# Tests used:
# Pigweeds [1] = test: Post-emergent herbicide evaluation (Table I); assay type: in vivo; conditions: 1000 ppm, 2 weeks after treatment
# Protocol: (§1) Pots are filled with a sandy soil, and plants of any species considered appropriate (such as pigweed, field bindweed, velvet leaf, cotton, barnyard grass, foxtail, wild oat, and crabgrass) are grown to an average height of 2 to 4 inches. Plants are then sprayed to run-off with an aqueous solution or dispersion containing the test chemical at the desired concentration. The plants are maintained in the greenhouse and are sub-irrigated as necessary. Final readings are made 2 weeks after treatment. Readings represent the percent kill or control of growth on the treated plants when compared to untreated plants, with 0 = no visible effects and 100 = all plants dead. Compounds found active are subsequently tested over a range of rates which are less than the initial rate. The procedure is the same as described above except that additional species (such as soybean, corn, wheat, ragweed, Johnson grass, etc.) are used. Additionally, test chemicals may be applied to the soil surface by drenching or as a solid to preclude contact with foliage. If foliage is sprayed, the pots are subsequently maintained by sub-irrigation; if chemical application is made to the soil, the pots are top-watered.
# Cultured Rice [2] = test: Post-emergent herbicide evaluation (Table I); assay type: in vivo; conditions: 4000 ppm, 2 weeks after treatment
# Protocol: as §1
# Wild Oats [3] = test: Post-emergent herbicide evaluation (Table I); assay type: in vivo; conditions: 4000 ppm, 2 weeks after treatment
# Protocol: as §1
# Beans [4] = test: Post-emergent herbicide evaluation (Table I); assay type: in vivo; conditions: 4000 ppm, 2 weeks after treatment
# Protocol: as §1
# Soybeans = test: Post-emergent herbicide evaluation (Table I); assay type: in vivo; conditions: 4000 ppm, 2 weeks after treatment
# Protocol: as §1
# Corn [5] = test: Post-emergent herbicide evaluation (Table I); assay type: in vivo; conditions: 4000 ppm, 2 weeks after treatment
# Protocol: as §1
# White Winter Wheat [6] = test: Post-emergent herbicide evaluation (Table I); assay type: in vivo; conditions: 2000 ppm, 2 weeks after treatment
# Protocol: as §1
# Morning Glory [7] = test: Post-emergent herbicide evaluation (Table I); assay type: in vivo; conditions: 2000 ppm, 2 weeks after treatment
# Protocol: as §1
# Yellow Foxtail [8] = test: Post-emergent herbicide evaluation (Table I); assay type: in vivo; conditions: 4000 ppm, 2 weeks after treatment
# Protocol: as §1
# Crabgrass [9] = test: Post-emergent herbicide evaluation (Table I); assay type: in vivo; conditions: 4000 ppm, 2 weeks after treatment
# Protocol: as §1
# Barnyard Grass [10] = test: Post-emergent herbicide evaluation (Table I); assay type: in vivo; conditions: 4000 ppm, 2 weeks after treatment
# Protocol: as §1
# German Millet [11] = test: Post-emergent herbicide evaluation (Table I); assay type: in vivo; conditions: 4000 ppm, 2 weeks after treatment
# Protocol: as §1
# Velvet Leaf [12] = test: Post-emergent herbicide evaluation (Table I); assay type: in vivo; conditions: 2 weeks after treatment
# Protocol: as §1
# Rape [13] = test: Post-emergent herbicide evaluation (Table I); assay type: in vivo; conditions: 1000 ppm, 2 weeks after treatment
# Protocol: as §1
# Cotton [14] = test: Post-emergent herbicide evaluation (Table I); assay type: in vivo; conditions: 4000 ppm, 2 weeks after treatment
# Protocol: as §1
# Sorghum/Milo [15] = test: Post-emergent herbicide evaluation (Table I); assay type: in vivo; conditions: 4000 ppm, 2 weeks after treatment
# Protocol: as §1
# Pigweeds [16] = test: Pre-emergent herbicide evaluation (Table II); assay type: in vivo; conditions: 2 Lbs/Acre, about 2 weeks after treatment
# Source text: (§2) Pots are filled to within 1 inch of the top with a medium-textured soil and seeds of any species considered appropriate (such as pigweed, field bindweed, velvet leaf, cotton, barnyard grass, foxtail, wild oat and crabgrass) are sown in their appropriate area. The seeds are then covered with a 1/2 inch layer of a sandy soil and test chemicals formulated at the desired concentration are drenched onto the soil surface in sufficient volume to wet the top 11/2 to 2 inches of soil. The pots are maintained in the greenhouse and are top-watered as necessary. Final readings are made about 2 weeks after treatment, the exact time depending upon the rate of plant growth. Readings are based on the germination and the growth of treated plants compared with that of untreated plants. Readings of 0% = no visible effects and 100% = all plants dead.
# (§3) Compounds found active are subsequently tested over a range of rates which are less than the initial rate. The procedure is the same as described above with the exceptions that the seeds of appropriate species (such as soybean, corn, wheat, ragweed, Johnson grass, etc.) are covered with the same medium-textured soil used to fill the pot, and the chemicals are sprayed onto the soil surface at the desired rate in sufficient volume to cover and wet the soil surface. The pots are maintained, top-watered, and graded as described above.
# Cultured Rice [17] = test: Pre-emergent herbicide evaluation (Table II); assay type: in vivo; conditions: about 2 weeks after treatment
# Source text: as §2, §3
# Wild Oats [18] = test: Pre-emergent herbicide evaluation (Table II); assay type: in vivo; conditions: about 2 weeks after treatment
# Source text: as §2, §3
# Beans [19] = test: Pre-emergent herbicide evaluation (Table II); assay type: in vivo; conditions: 10 Lbs/Acre, about 2 weeks after treatment
# Source text: as §2, §3
# Corn [20] = test: Pre-emergent herbicide evaluation (Table II); assay type: in vivo; conditions: 4 Lbs/Acre, about 2 weeks after treatment
# Source text: as §2, §3
# Soybean = test: Pre-emergent herbicide evaluation (Table II); assay type: in vivo; conditions: 4 Lbs/Acre, about 2 weeks after treatment
# Source text: as §2, §3
# White Winter Wheat [21] = test: Pre-emergent herbicide evaluation (Table II); assay type: in vivo; conditions: 4 Lbs/Acre, about 2 weeks after treatment
# Source text: as §2, §3
# Morning Glory [22] = test: Pre-emergent herbicide evaluation (Table II); assay type: in vivo; conditions: 4 Lbs/Acre, about 2 weeks after treatment
# Source text: as §2, §3
# Yellow Foxtail [23] = test: Pre-emergent herbicide evaluation (Table II); assay type: in vivo; conditions: 10 Lbs/Acre, about 2 weeks after treatment
# Source text: as §2, §3
# Crabgrass [24] = test: Pre-emergent herbicide evaluation (Table II); assay type: in vivo; conditions: 10 Lbs/Acre, about 2 weeks after treatment
# Source text: as §2, §3
# Barnyard Grass [25] = test: Pre-emergent herbicide evaluation (Table II); assay type: in vivo; conditions: 10 Lbs/Acre, about 2 weeks after treatment
# Source text: as §2, §3
# German Millet [26] = test: Pre-emergent herbicide evaluation (Table II); assay type: in vivo; conditions: 2 Lbs/Acre, about 2 weeks after treatment
# Source text: as §2, §3
# Velvet Leaf [27] = test: Pre-emergent herbicide evaluation (Table II); assay type: in vivo; conditions: 10 Lbs/Acre, about 2 weeks after treatment
# Source text: as §2, §3
# Johnson Grass = test: Pre-emergent herbicide evaluation (Table II); assay type: in vivo; conditions: 4 Lbs/Acre, about 2 weeks after treatment
# Source text: as §2, §3
# Rape [28] = test: Pre-emergent herbicide evaluation (Table II); assay type: in vivo; conditions: 4 Lbs/Acre, about 2 weeks after treatment
# Source text: as §2, §3
# Bindweed [29] = test: Pre-emergent herbicide evaluation (Table II); assay type: in vivo; conditions: 10 Lbs/Acre, about 2 weeks after treatment
# Source text: as §2, §3
# Cotton [30] = test: Pre-emergent herbicide evaluation (Table II); assay type: in vivo; conditions: about 2 weeks after treatment
# Source text: as §2, §3
# Sorghum/Milo [31] = test: Pre-emergent herbicide evaluation (Table II); assay type: in vivo; conditions: about 2 weeks after treatment
# Source text: as §2, §3
# weeds = test: Post- and pre-emergent herbicide evaluation, weeds overall; assay type: in vivo; conditions: Examples 2(A) and 2(B)
# Protocol: as §1, with “The procedure is the same as described above except that additional species (such as soybean, corn, wheat, ragweed, Johnson grass, etc.) are used. Additionally, test chemicals may be applied to the soil surface by drenching or as a solid to preclude contact with foliage. If foliage is sprayed, the pots are subsequently maintained by sub-irrigation; if chemical application is made to the soil, the pots are top-watered.” left out
# (§4) Pots are filled to within 1 inch of the top with a medium-textured soil and seeds of any species considered appropriate (such as pigweed, field bindweed, velvet leaf, cotton, barnyard grass, foxtail, wild oat and crabgrass) are sown in their appropriate area. […] Final readings are made about 2 weeks after treatment, the exact time depending upon the rate of plant growth. Readings are based on the germination and the growth of treated plants compared with that of untreated plants. Readings of 0% = no visible effects and 100% = all plants dead. […]
# Staphylococcus aureus = test: Standard screening test, growth inhibition of microorganism; assay type: cell-based; conditions: 500 ppm
# Buckwheat = test: Comparison with BROMINIL as post-emergent herbicide; assay type: in vivo; conditions: post-emergence; post-emergent spray, 0.2% Tween 20, 300 gallons per acre; read-out: Concentration Required for adequate control
# Protocol: (§5) All plants were grown in a greenhouse and sprayed with the test solution when they attained 1 to 2 inches in height. The test solutions were made up in water, using a 0.2% Tween 20 surfactant (polyoxyethylene derivative of a fatty acid partial ester of sorbitol) and were applied in a total spray volume equivalent to 300 gallons per acre.
# Wild Oats [32] = test: as above; assay type: in vivo; conditions: for minimal effective concentration: Avena fatua, post-emergence, post-emergent spray, 0.2% Tween 20, 300 gallons per acre, read-out: Concentration Required for adequate control
# Protocol: as §5
# Wheat = test: as above; assay type: in vivo; conditions: Triticum aestivum, post-emergence; post-emergent spray, 0.2% Tween 20, 300 gallons per acre; read-out: Concentration: minimum required for injury of wheat
# Protocol: as §5
# Morning Glory [33] = test: as above; assay type: in vivo; conditions: Ipomoea, post-emergence; post-emergent spray, 0.2% Tween 20, 300 gallons per acre; read-out: Concentration Required for adequate control
# Protocol: as §5
# Bindweed [34] = test: as above; assay type: in vivo; conditions: post-emergence; post-emergent spray, 0.2% Tween 20, 300 gallons per acre; read-out: Concentration Required for adequate control
# Protocol: as §5
# Wild Mustard = test: as above; assay type: in vivo; conditions: Brassica, post-emergence; post-emergent spray, 0.2% Tween 20, 300 gallons per acre; read-out: Concentration Required for adequate control
# Protocol: as §5
# Solubility = assay type: physicochemical
# two-spotted spider mites = test: Standard screening test, control of two-spotted spider mites; assay type: in vivo; conditions: 400 parts per million
# crop plants = test: Post- and pre-emergent herbicide evaluation, crop plants overall; assay type: in vivo; conditions: at concentrations effective for weed control
# Protocol: as §1, with “The procedure is the same as described above except that additional species (such as soybean, corn, wheat, ragweed, Johnson grass, etc.) are used. Additionally, test chemicals may be applied to the soil surface by drenching or as a solid to preclude contact with foliage. If foliage is sprayed, the pots are subsequently maintained by sub-irrigation; if chemical application is made to the soil, the pots are top-watered.” left out
# as §4
# plants = test: Comparison with BROMINIL as post-emergent herbicide, overall; assay type: in vivo; conditions: Example 2(C)
# Protocol: as §5
smiles,measurement,setting,value
"N#Cc1cc(Br)c(O)c(Br)n1 [4,6-dibromo-5-hydroxy-2-pyridine nitrile]",Percent Control,Pigweeds [1],100%
same,Percent Control,Cultured Rice [2],0%
same,Percent Control,Wild Oats [3],65%
same,Percent Control,Beans [4],70%
same,Percent Control,Soybeans,0%
same,Percent Control,Corn [5],0%
same,Percent Control,White Winter Wheat [6],0%
same,Percent Control,Morning Glory [7],100%
same,Percent Control,Yellow Foxtail [8],70%
same,Percent Control,Crabgrass [9],100%
same,Percent Control,Barnyard Grass [10],75%
same,Percent Control,German Millet [11],85%
same,Percent Control,Velvet Leaf [12]; 1000 ppm,85%
same,Percent Control,Velvet Leaf [12]; 2000 ppm,100%
same,Percent Control,Rape [13],100%
same,Percent Control,Cotton [14],100%
same,Percent Control,Sorghum/Milo [15],0%
same,% Control,Pigweeds [16],100%
same,% Control,Cultured Rice [17]; 2 Lbs/Acre,0%
same,% Control,Cultured Rice [17]; 4 Lbs/Acre,15%
same,% Control,Wild Oats [18]; 4 Lbs/Acre,70%
same,% Control,Wild Oats [18]; 10 Lbs/Acre,85%
same,% Control,Beans [19],60%
same,% Control,Corn [20],20%
same,% Control,Soybean,0%
same,% Control,White Winter Wheat [21],0%
same,% Control,Morning Glory [22],15%
same,% Control,Yellow Foxtail [23],80%
same,% Control,Crabgrass [24],50%
same,% Control,Barnyard Grass [25],40%
same,% Control,German Millet [26],40%
same,% Control,Velvet Leaf [27],40%
same,% Control,Johnson Grass,0%
same,% Control,Rape [28],25%
same,% Control,Bindweed [29],25%
same,% Control,Cotton [30]; 4 Lbs/Acre,0%
same,% Control,Cotton [30]; 10 Lbs/Acre,100%
same,% Control,Sorghum/Milo [31]; 2 Lbs/Acre,0%
same,% Control,Sorghum/Milo [31]; 4 Lbs/Acre,15%
same,herbicidal activity against weeds,weeds,moderately active herbicide against weeds
same,growth inhibition of Staphylococcus aureus,Staphylococcus aureus,inhibited growth
same,minimal effective concentration,Buckwheat,250 µg/mL
same,minimal effective concentration,Wild Oats [32],500 µg/mL
same,times more active than BROMINIL against wild oats,"Wild Oats [32]; post-emergent, relative to BROMINIL",8 times
same,minimal effective concentration,Wheat,2000 µg/mL
same,minimal effective concentration,Morning Glory [33],1000 µg/mL
same,minimal effective concentration,Bindweed [34],4000 µg/mL
same,minimal effective concentration,Wild Mustard,62 µg/mL
same,solubility in the common organic solvents,Solubility; common organic solvents,soluble in the common organic solvents
same,solubility in water,Solubility; water,essentially insoluble in water
same,control of two-spotted spider mites,two-spotted spider mites,100%
same,activity against most crop plants,crop plants,low or nil activity against most crop plants
same,general activity relative to BROMINIL,plants,generally less active than BROMINIL
"N#Cc1cc(Br)c(O)c(Br)c1 [BROMINIL, 3,5-dibromo-4-hydroxy benzonitrile]",minimal effective concentration,Buckwheat,16 µg/mL
same,minimal effective concentration,Wild Oats [32],> 4000 µg/mL
same,minimal effective concentration,Wheat,4000 µg/mL
same,minimal effective concentration,Morning Glory [33],16 µg/mL
same,minimal effective concentration,Bindweed [34],500 µg/mL
same,minimal effective concentration,Wild Mustard,16 µg/mL

# From patent US3956338A, “4,6-Dibromo-5-hydroxy-2-pyridine nitrile compounds and method of preparation” (The Dow Chemical Company, priority 1975, dated 1976)
